Values joined by “and” are separate entries in the source; they are usually repeats but may differ in a detail not shown here. Equal values may be shown once. Active and inactive are the calls of the source.
Columns and labels:
Format in all cases: functional
[1] = molecular target: T1, Replicative DNA helicase DnaB (Mycobacterium tuberculosis, UniProt P9WMR3); assay: DnaB intein splicing inhibitors, dose response, biochemical, cell-free fluorescence (AID 449749)
T1 sequence (P9WMR3 whole entry): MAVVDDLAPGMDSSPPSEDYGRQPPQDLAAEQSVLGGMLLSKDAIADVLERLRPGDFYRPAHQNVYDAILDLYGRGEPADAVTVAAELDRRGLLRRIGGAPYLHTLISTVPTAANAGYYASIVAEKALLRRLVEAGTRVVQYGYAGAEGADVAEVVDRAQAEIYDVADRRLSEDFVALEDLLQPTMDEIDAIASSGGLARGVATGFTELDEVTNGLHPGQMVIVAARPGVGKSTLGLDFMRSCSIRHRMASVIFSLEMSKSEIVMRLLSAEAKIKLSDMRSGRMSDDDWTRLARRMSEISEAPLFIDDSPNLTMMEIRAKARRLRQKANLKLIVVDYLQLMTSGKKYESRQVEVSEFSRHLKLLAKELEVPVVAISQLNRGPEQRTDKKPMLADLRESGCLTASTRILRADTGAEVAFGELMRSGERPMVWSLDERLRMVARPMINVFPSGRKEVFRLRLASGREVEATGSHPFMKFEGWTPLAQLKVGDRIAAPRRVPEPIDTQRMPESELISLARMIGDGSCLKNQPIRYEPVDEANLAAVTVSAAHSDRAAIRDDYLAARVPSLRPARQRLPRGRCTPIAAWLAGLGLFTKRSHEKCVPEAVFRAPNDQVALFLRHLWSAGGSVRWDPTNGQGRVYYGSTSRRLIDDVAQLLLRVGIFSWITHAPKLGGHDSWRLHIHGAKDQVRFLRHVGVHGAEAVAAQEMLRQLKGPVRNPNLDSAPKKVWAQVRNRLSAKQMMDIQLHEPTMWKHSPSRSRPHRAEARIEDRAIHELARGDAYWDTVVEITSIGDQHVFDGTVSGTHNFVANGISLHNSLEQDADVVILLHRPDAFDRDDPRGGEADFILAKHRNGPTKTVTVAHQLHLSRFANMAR

[2] = molecular target: T2, Apoptotic protease-activating factor 1 (Homo sapiens, UniProt O14727)
T2 sequence (O14727 whole entry): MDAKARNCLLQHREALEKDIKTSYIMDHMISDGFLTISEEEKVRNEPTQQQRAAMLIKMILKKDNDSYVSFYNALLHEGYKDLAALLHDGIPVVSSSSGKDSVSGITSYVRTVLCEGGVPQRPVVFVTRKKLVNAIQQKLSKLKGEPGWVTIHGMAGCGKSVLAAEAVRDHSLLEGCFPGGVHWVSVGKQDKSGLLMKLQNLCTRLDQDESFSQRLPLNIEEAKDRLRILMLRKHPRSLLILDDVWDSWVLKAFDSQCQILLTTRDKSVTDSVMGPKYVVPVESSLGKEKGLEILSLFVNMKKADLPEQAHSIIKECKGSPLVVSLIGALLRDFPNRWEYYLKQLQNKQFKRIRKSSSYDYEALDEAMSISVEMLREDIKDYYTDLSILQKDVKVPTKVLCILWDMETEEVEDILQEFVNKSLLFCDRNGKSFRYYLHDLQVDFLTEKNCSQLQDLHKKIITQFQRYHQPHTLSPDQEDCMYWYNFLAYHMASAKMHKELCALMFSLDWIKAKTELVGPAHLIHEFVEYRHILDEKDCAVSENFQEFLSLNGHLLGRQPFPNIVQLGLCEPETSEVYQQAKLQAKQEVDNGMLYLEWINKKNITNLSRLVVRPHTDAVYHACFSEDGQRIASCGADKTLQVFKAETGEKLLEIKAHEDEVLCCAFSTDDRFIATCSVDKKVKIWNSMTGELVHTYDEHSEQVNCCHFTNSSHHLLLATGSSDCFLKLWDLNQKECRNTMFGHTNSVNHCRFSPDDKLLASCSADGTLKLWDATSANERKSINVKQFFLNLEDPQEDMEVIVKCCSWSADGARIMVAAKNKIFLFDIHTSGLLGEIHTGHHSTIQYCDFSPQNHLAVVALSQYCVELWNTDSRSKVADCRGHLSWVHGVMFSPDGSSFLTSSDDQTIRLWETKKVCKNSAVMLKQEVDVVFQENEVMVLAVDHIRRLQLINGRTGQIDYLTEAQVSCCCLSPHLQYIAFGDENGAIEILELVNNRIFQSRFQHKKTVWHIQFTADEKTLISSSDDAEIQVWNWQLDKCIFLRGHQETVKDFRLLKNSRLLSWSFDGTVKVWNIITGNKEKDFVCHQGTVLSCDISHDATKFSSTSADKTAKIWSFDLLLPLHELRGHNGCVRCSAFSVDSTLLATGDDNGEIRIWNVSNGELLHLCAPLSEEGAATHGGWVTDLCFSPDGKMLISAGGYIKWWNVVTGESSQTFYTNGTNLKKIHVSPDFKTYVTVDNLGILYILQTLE

Protein RecA = molecular target: T3, Protein RecA (Mycobacterium tuberculosis, UniProt P9WHJ3); assay: Fluorescence Cell-Free Homogeneous Dose Retest to Identify Inhibitors of RecA-Intein Splicing Activity. [Related pubchem assays (depositor defined):AID2097, AID2223, AID489010, AID492950]
T3 sequence (P9WHJ3 whole entry): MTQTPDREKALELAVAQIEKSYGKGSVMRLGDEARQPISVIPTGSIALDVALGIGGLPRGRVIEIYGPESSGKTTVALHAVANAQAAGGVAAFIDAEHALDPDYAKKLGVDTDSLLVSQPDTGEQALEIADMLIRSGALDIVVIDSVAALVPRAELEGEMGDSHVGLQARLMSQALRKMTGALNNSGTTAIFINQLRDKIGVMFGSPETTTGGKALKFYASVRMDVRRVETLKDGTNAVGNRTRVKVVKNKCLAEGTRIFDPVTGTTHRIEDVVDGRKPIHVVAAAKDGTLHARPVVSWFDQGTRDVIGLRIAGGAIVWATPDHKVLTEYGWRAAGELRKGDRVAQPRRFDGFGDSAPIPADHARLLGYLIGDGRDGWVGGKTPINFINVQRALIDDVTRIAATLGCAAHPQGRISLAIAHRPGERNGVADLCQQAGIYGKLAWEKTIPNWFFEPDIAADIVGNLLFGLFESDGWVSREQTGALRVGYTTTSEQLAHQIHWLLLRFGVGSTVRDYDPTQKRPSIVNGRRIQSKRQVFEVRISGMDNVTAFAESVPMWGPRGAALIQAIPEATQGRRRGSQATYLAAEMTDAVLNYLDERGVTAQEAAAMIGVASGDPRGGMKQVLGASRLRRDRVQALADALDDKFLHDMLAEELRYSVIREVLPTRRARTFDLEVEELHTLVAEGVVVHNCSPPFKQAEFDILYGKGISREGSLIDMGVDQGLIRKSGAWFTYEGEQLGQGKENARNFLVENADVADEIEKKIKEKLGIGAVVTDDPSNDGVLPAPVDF

Compound | AC50 [1] | IC50 [2] | EC50 (Protein RecA)
CCCCCCCCCCOC(=O)Cn1c(COc2ccc(OC)cc2)[n+](C)c2ccccc21 | 3.97 µM (active) and 4.05 µM (active) | 10.7 µM (active) and 13.4 µM (active) | 10.6 µM (active) and 11.1 µM (active)
COc1cc2c(cc1OC)-c1c(OC)c(OC)cc3c1[C@H](C2)N(C)CC3 | 3.6 µM (active) | 2.82 µM (active) | 4.91 µM (active)
O=C1C(Cl)=C(N2CCC(C(=O)O)CC2)C(=O)c2ccccc21 | 19.3 µM (active) | 13.4 µM (active) | 5.78 µM (active)
COC1=C(c2ccccc2)C(=O)c2ccccc2C1=O | 13.4 µM (active) |  | 13.3 µM (active)

Source: ChEMBL document CHEMBL1201862, “PubChem BioAssay data set” (2004)
